Results from patent publication US20070161568A1, “Use of GLP-1 peptides” (Novo Nordisk A/S, priority 1996, published 2007).
Read-outs that look alike come from different tables or passages of the source. No end group written: not given here.

Tests used:
food intake in rats = conditions: cited from earlier work
[1] = tested on: food intake in normal human subjects; test: iv infusion of GLP-1(7-36)amide in a double-blind crossover trial: visual analogue scale ratings and ad libitum lunch energy intake; type: in vivo
Description: The effect of GLP-1(7-36)amide on food intake in normal human subjects.
Healthy human volunteers (20 subjects) were in a double-blind crossover trial given an iv infusion of 50 pmol/(kg·h) of GLP-1(7-36)amide or saline on separate, but otherwise identical experimental days. The infusion was started at 9.00 and lasted until 15.00. At 9.45 the subjects received a fixed amount of breakfast and at 14.15 they had lunch of an identical composition but ad libitum. The subjects rated their feeling of satiety, hunger, fullness and appetite on a visual analogue scale every half hour. The results are given below: • Satiety: GLP-1>Saline, p=0.006 • Hunger: GLP-1<Saline, p=0.007 • Fullness: GLP-1>Saline, p=0.010 • Appetite: GLP-1<Saline, p=0.007
The energy intake of each subjects was measured. The intakes were 3.9 MJ with GLP-1 and 4.3 MJ with Saline resulting in a p-value of 0.009.

[2] = tested on: appetite suppression in mice; test: appetite suppression in mice: sucrose consumption, tested immediately after ip injection (Example 2); type: in vivo; conditions: 85 micrograms (equivalent to 3.4 mg/kg), 10 minute period, p-value 0.002
Protocol: Test method for measuring appetite suppression in mice.
Mice were deprived of their normal food for two days and given free access to a 20% sucrose solution on the first day of food deprivation. After the two day food deprivation period, the mice were injected intraperitoneally with 0.5 ml of a solution containing the test substance. Immediately after injection, individual mice were placed in one of eight 15 cm square test boxes with a stainless steel grid floor and a glass drinking tube which projected into the box. […] Consumption of the sucrose solution was measured over a 10 minute period by electronically recording the total amount of contact with the sucrose solution during the test session. The degree of appetite suppression produced by a given test substance was determined by statistical comparison of the mean duration of sucrose consumption by control (vehicle treated) mice with that of mice treated with a test substance. The degree of appetite suppression in a treated group of mice was expressed as percent difference between the test and control group's response duration means. […]

[3] = healthy human volunteers, iv infusion 50 pmol/(kg·h) vs saline, p=0.007

In the case of “GLP-1: proglucagon fragment 72-108, commonly referred to as GLP-1(1-37) or just GLP-1; in b61 it means GLP-1(7-36)amide”, the “effect on food intake” value (food intake in rats; administered intracerebroventricularly, Tang-Christensen et al.) is listed as “profound effect”, the “effect on food intake” value (food intake in rats; administered intracerebroventricularly, Turton et al.) is listed as “profound effect” and the “effect on food intake” value (food intake in rats; peripheral administration, Turton et al.) is listed as “inactive”. The “effect on food intake” value (food intake in rats; peripherally administered, Tang-Christensen et al.) was “no significant effect” and the energy intake ([1]; ad libitum lunch, iv infusion 50 pmol/(kg·h), saline 4.3 MJ, p-value 0.009) was 3.9 mJ.

For “GLP-1(1-36)amide (HDEFERHAEGTFTSDVSSYLEGQAAKEFIAWLVKGR-NH2; UniProt P01275 92-127, looked up, fragment) [GLP-1 fragment 1-36 as C-terminal amide, literature result]”, the “effect on food intake” value (food intake in rats; route not stated, Tang-Christensen et al.) is listed as “no effect”.

With “GLP-1(7-36)amide (HAEGTFTSDVSSYLEGQAAKEFIAWLVKGR-NH2; UniProt P01275 98-127, looked up) [fragment 7-36 of GLP-1 as C-terminal amide]” the “suppression of sucrose consumption” value [2] was 60%, the “Satiety (visual analogue scale)” value ([1]; healthy human volunteers, iv infusion 50 pmol/(kg·h) vs saline, rated every half hour, p=0.006) was “GLP-1>Saline” and the “Appetite (visual analogue scale)” value [1, 3] was “GLP-1<Saline”. The “Hunger (visual analogue scale)” value [1, 3] was “GLP-1<Saline” and the “Fullness (visual analogue scale)” value ([1]; healthy human volunteers, iv infusion 50 pmol/(kg·h) vs saline, p=0.010) was “GLP-1>Saline”.
